Assay results as given in patent publication US7803803B2, “Tetrahydrofuro[3,2-B] pyrrol-3-ones as cathepsin K inhibitors” (Amura Therapeutics Limited, priority 2007, dated 2010).

Columns and labels:
[1] = target: T1, cathepsin K (Homo sapiens, UniProt P43235); test: In vitro cathepsin Ki inhibition measurements; type: biochemical; parameters: purchased B. Turk, Josef Stefan Institute, Ljubljana, Slovenia; conditions: human recombinant cathepsin K; read-out: In vitro Ki (nM) vs Cath K
T1 sequence (P43235 115-329): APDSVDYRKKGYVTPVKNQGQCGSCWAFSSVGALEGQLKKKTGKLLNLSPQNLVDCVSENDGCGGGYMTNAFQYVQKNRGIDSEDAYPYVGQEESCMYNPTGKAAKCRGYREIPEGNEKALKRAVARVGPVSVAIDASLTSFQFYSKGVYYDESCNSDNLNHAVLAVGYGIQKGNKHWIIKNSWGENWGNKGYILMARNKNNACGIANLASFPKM
Experimental: Stock solutions of substrate or inhibitor were made up to 10 mM in 100% dimethylsulfoxide (DMSO) (Rathburns, Glasgow, U.K.) and diluted as appropriately required. In all cases the DMSO concentration in the assays was maintained at less than 1% (vol./vol.). The equilibrium inhibition constants (Ki^SS) for each compound were measured under steady-state conditions monitoring enzyme activity as a function of inhibitor concentration. The values were calculated on the assumption of pure competitive behaviour (Cornish-Bowden, A. Fundamentals of enzyme kinetics Portland Press; 1995, 93-128). Human recombinant cathepsin K (0.25 nM final; B. Turk, Josef, Stefan Institute, Ljubljana, Slovenia), was routinely assayed in 100 mM sodium acetate; pH 5.5 containing 1 mM EDTA, 10 mM L-cysteine and 1.8 μM Z-Leu-Arg-AMC ([S]═KM).
The apparent inhibition constant (Ki) for each compound was determined on the basis that inhibition was reversible and occurred by a pure-competitive mechanism. The Ki values were calculated, from the dependence of enzyme activity as a function of inhibitor concentration, by direct regression analysis (Prism v 3.02) using Equation 2 (Cornish-Bowden, A., 1995).
In situations where the apparent dissociation constant (Ki^app) approached the enzyme concentrations, the Ki^app values were calculated using a quadratic solution in the form described by Equation 3 (Morrison, J. F. Trends Biochem. Sci., 7, 102-105, 1982; Morrison, J. F. Biochim. Biophys. Acta, 185, 269-286, 1969; Stone, S. R. and Hofsteenge, J. Biochemistry, 25, 4622-4628, 1986).
Curves were fitted by non-linear regression analysis (Prism) using a fixed value for the enzyme concentration. Equation 4 was used to account for the substrate kinetics, where ‘Ki’ is the inhibition constant, ‘[So]’ is the initial substrate concentration and ‘KM^app’ is the apparent macroscopic binding (Michaelis) constant for the substrate (Morrison, 1982).

[2] = LogD determinations; type: physicochemical; conditions: Ion-count method; for logD at 1 h: 1-octanol/phosphate buffered saline, pH 7.4, pH 7.4
Experimental: LogD(PBS) determinations were performed in 96 well microtitre plates using a miniaturised “shake-flask” method. […] The plates were then capped and mixed vigorously for 1 hour on a microtitre plate shaker, after which they were left to stand, allowing the PBS and octanol phases to separate. The PBS layer was analysed by reverse phase HPLC with mass spectrometric detection, using single ion monitoring of the [M+H]^+ species.
Where AUCstd and AUCpbs are the peak areas from the standard and test ion chromatograms respectively.

[3] = Plasma incubations (human plasma stability); type: in vitro ADME; conditions: 37° C. Also: tested at 25 µM.
Experimental: Aliquots were removed at 2 and 60 minutes and quenched with an equal volume of cold acetonitrile. After mixing vigorously, the precipitated protein matter was removed by filtration (Multiscreen Solvinert filter plates, Millipore, Bedford, Mass., USA) and the filtrate analysed by reverse phase HPLC with mass spectrometric detection, using single ion monitoring of the [M+H]^+ species. Metabolic turnover was determined by comparison of peak areas from the ion chromatograms of the parent compound at 2 and 60 minutes and expressed as percent remaining at 1 hour.

[4] = tested on: human osteoclasts; test: Human osteoclast resorption assay; type: cell-based; conditions: for inhibition at 1 µM: Homo sapiens, Osteoclast, 48 h, 1 □ M, read-out: Cell-based % Inh. @ 1 □ M Human; for IC50: read-out: Cell-based Human IC50
Experimental: Bone resorption was studied using a model where human osteoclast precursor cells were cultured on bovine bone slices for 9 days and allowed to differentiate into bone-resorbing osteoclasts. The formed mature osteoclasts were then allowed to resorb bone. The assay was performed by Pharmatest Services Ltd, Itäinen Pitkakatu 4C, Turku, Finland. After the culture period, bone collagen degradation products were quantified from the culture medium as an index of bone resorption. Inhibitor compounds were added into the cell cultures after the differentiation period and their effects on the resorbing activity of mature osteoclasts were determined. The studies included a baseline group without added compounds and a positive control group where a potent cathepsin K inhibitor E-64 was added.
Human peripheral blood monocytes were suspended to culture medium and allowed to attach to bovine bone slices. The bone slices were transferred into 96-well tissue culture plates containing culture medium with appropriate amounts of important growth factors favouring osteoclast differentiation, including M-CSF, RANK-ligand and TGF-[…]. The cells were incubated in a CO2 incubator in humidified atmosphere of 95% air and 5% carbon dioxide at 37° C. At day 7 when osteoclast differentiation was complete, the culture medium was replaced with culture medium containing conditions favouring osteoclast activity. The cell culture was continued for an additional 2 days, during which the formed mature osteoclasts were allowed to resorb bone in the presence of vehicle, control inhibitor (E64) or test compounds. At the end of the culture, bone collagen degradation products released into the culture medium were determined using a commercially available ELISA method (CrossLaps® for culture, Nordic Bioscience, Herlev, Denmark) as an index of bone resorption (see Bagger, Y. Z. et al, J. Bone. Miner. Res. 14 (suppl. 1), S370).

| Ki [1] [nM] | LogD pH 7.4 [2] | Human Plasma Stability % rem. @ 1 h [3] [%] | logD at 1 h [2] | IC50 [4] [nM] | Structure (SMILES) | inhibition at 1 µM [4] [%] |
| --- | --- | --- | --- | --- | --- | --- |
| 4.9 |  | 91.8 | 0.75 | 637 | CO[C@@H]1CN(C(=O)[C@@H](NC(=O)c2ccc(N3CCN(C)CC3)cc2)C2CCCC2)[C@@H]2C(=O)CO[C@@H]21 |  |
| 9.9 | 0.89 | 93 | > 0.8 |  | CCN1CCN(c2ccc(C(=O)N[C@@H](CC(C)C)C(=O)N3C[C@@H](OC)[C@H]4OCC(=O)[C@H]43)cc2)CC1 [Example 7, 4-(4-ethylpiperazin-1-yl)-N—((S)-1-((3aS,6R,6aS)-6-methoxy-3-oxodihydro-2H-furo[3,2-b]pyrrol-4(5H,6H,6aH)-yl)-4-methyl-1-oxopentan-2-yl)benzamide] | 63 to 88 |
| 3.4 |  | 90.7 | 0.95 | 231 | CCN1CCN(c2ccc(C(=O)N[C@H](C(=O)N3C[C@@H](OC)[C@H]4OCC(=O)[C@H]43)C3CCCC3)cc2)CC1 |  |
| 8.1 | 0.23 | 95 |  |  | COCCN1CCN(c2ccc(C(=O)N[C@@H](CC(C)C)C(=O)N3C[C@@H](O)[C@H]4OCC(=O)[C@H]43)cc2)CC1 [Example 26, N—((S)-1-((3aS,6R,6aS)-6-hydroxy-3-oxodihydro-2H-furo[3,2-b]pyrrol-4(5H,6H,6aH)-yl)-4-methyl-1-oxopentan-2-yl)-4-(4-(2-methoxyethyl)piperazin-1-yl)benzamide] | 25 to 54 |
| 3.7 | 1.69 | 97 |  |  | CCCN1CCN(c2ccc(C(=O)N[C@@H](CC(C)(C)C)C(=O)N3C[C@@H](OC)[C@H]4OCC(=O)[C@H]43)cc2)CC1 [Example 16, N—((S)-1-((3aS,6R,6aS)-6-methoxy-3-oxodihydro-2H-furo[3,2-b]pyrrol-4(5H,6H,6aH)-yl)-4,4-dimethyl-1-oxopentan-2-yl)-4-(4-propylpiperazin-1-yl)benzamide] | 63 to 88 |
| 5.6 | 1.18 | 96 | > 0.8 |  | CO[C@H]1CN(C(=O)[C@H](CC(C)C)NC(=O)c2ccc(N3CCN(C)CC3)cc2)[C@@H]2C(=O)CO[C@H]12 [Example 1, N—((S)-1-((3aS,6S,6aS)-6-methoxy-3-oxodihydro-2H-furo[3,2-b]pyrrol-4(5H,6H,6aH)-yl)-4-methyl-1-oxopentan-2-yl)-4-(4-methylpiperazin-1-yl)benzamide] | 63 to 88 |
| 6.3 | 1.23 | 99 | > 0.8 |  | COCCN1CCN(c2ccc(C(=O)N[C@@H](CC(C)C)C(=O)N3C[C@H](OC)[C@H]4OCC(=O)[C@H]43)cc2)CC1 [Example 27, N—((S)-1-((3aS,6S,6aS)-6-methoxy-3-oxodihydro-2H-furo[3,2-b]pyrrol-4(5H,6H,6aH)-yl)-4-methyl-1-oxopentan-2-yl)-4-(4-(2-methoxyethyl)piperazin-1-yl)benzamide] | 63 to 88 |

Further lines, the molecule ahead of its results:

| Structure (SMILES) | Ki [1] [nM] | LogD pH 7.4 [2] | Human Plasma Stability % rem. @ 1 h [3] [%] | logD at 1 h [2] | IC50 [4] [nM] | inhibition at 1 µM [4] [%] |
| --- | --- | --- | --- | --- | --- | --- |
| COCCN1CCN(c2ccc(C(=O)N[C@@H](CC(C)C)C(=O)N3C[C@H](N)[C@H]4OCC(=O)[C@H]43)cc2)CC1 [Example 23, N—((S)-1-((3aS,6S,6aR)-6-amino-3-oxodihydro-2H-furo[3,2-b]pyrrol-4(5H,6H,6aH)-yl)-4-methyl-1-oxopentan-2-yl)-4-(4-(2-methoxyethyl)piperazin-1-yl)benzamide] | 11.2 | 0.55 | 88 |  |  | 25 to 54 |
| CO[C@@H]1CN(C(=O)[C@H](CC(C)(C)C)NC(=O)c2ccc(N3CCN(C(C)C)CC3)cc2)[C@@H]2C(=O)CO[C@@H]21 [Example 22, 4-(4-isopropylpiperazin-1-yl)-N—((S)-1-((3aS,6R,6aS)-6-methoxy-3-oxodihydro-2H-furo[3,2-b]pyrrol-4(5H,6H,6aH)-yl)-4,4-dimethyl-1-oxopentan-2-yl)benzamide] | 8.4 | 1.2 | 91 | > 0.8 |  | 63 to 88 |
| CCN1CCN(c2ccc(C(=O)N[C@@H](CC(C)C)C(=O)N3C[C@H](OC)[C@H]4OCC(=O)[C@H]43)cc2)CC1 [Example 5, 4-(4-ethylpiperazin-1-yl)-N—((S)-1-((3aS,6S,6aS)-6-methoxy-3-oxodihydro-2H-furo[3,2-b]pyrrol-4(5H,6H,6aH)-yl)-4-methyl-1-oxopentan-2-yl)benzamide] | 5.8 | 1.05 | 96 | > 0.8 |  | 63 to 88 |
| CO[C@H]1CN(C(=O)[C@H](CC(C)(C)C)NC(=O)c2ccc(N3CCN(C)CC3)cc2)[C@@H]2C(=O)CO[C@H]12 [Example 2, N—((S)-1-((3aS,6S,6aS)-6-methoxy-3-oxodihydro-2H-furo[3,2-b]pyrrol-4(5H,6H,6aH)-yl)-4,4-dimethyl-1-oxopentan-2-yl)-4-(4-methylpiperazin-1-yl)benzamide] | 6.3 | 1.00 | 93 | > 0.8 |  | 63 to 88 |
| COCCN1CCN(c2ccc(C(=O)N[C@@H](CC(C)C)C(=O)N3C[C@@H](OC)[C@H]4OCC(=O)[C@H]43)cc2)CC1 [Example 28, N—((S)-1-((3aS,6R,6aS)-6-methoxy-3-oxodihydro-2H-furo[3,2-b]pyrrol-4(5H,6H,6aH)-yl)-4-methyl-1-oxopentan-2-yl)-4-(4-(2-methoxyethyl)piperazin-1-yl)benzamide] | 14.4 | 0.76 | 88 |  |  | 25 to 54 |
| CO[C@H]1CN(C(=O)[C@@H](NC(=O)c2ccc(N3CCN(C)CC3)cc2)C2CCCC2)[C@@H]2C(=O)CO[C@H]12 | 1.8 |  | 93.6 | 1.36 | 52 |  |
| COCCN1CCN(c2ccc(C(=O)N[C@@H](CC(C)C)C(=O)N3C[C@H](O)[C@H]4OCC(=O)[C@H]43)cc2)CC1 [Example 25, N—((S)-1-((3aS,6S,6aS)-6-hydroxy-3-oxodihydro-2H-furo[3,2-b]pyrrol-4(5H,6H,6aH)-yl)-4-methyl-1-oxopentan-2-yl)-4-(4-(2-methoxyethyl)piperazin-1-yl)benzamide] | 6.9 | 0.56 | 92 |  |  | 25 to 54 |
| CCN1CCN(c2ccc(C(=O)N[C@@H](CC(C)(C)C)C(=O)N3C[C@@H](OC)[C@H]4OCC(=O)[C@H]43)cc2)CC1 [Example 8, 4-(4-ethylpiperazin-1-yl)-N—((S)-1-((3aS,6R,6aS)-6-methoxy-3-oxodihydro-2H-furo[3,2-b]pyrrol-4(5H,6H,6aH)-yl)-4,4-dimethyl-1-oxopentan-2-yl)benzamide] | 9.2 | 1.09 | 92 | > 0.8 |  | 63 to 88 |
